Experimental data as given in US20140357594A1, “NEW COMPOUNDS” (GlaxoSmithkline Intellectual Property (No.2) Limited, priority 2011, published 2014).

Assays:
[1] = target: T1, Catalytic domains of human DNMT 3a/3L enzyme (Homo sapiens, UniProt Q9Y6K1); assay: DNMT inhibition assay (3H-SAM filter plate scintillation), DNMT 3a/3L; type: biochemical; conditions: Poly(dIdC) DNA 0.002 mg/mL, H3 SAM 500 nM, 30 min pre-incubation without SAM, 37° C. 1 h; read-out: DNMT 3a/3I IC50
T1 construct: Catalytic domains of human DNMT 3a/3L enzyme were produced by Accelagen; purchased Accelagen
T1 sequence (Q9Y6K1 634-912 limits assumed): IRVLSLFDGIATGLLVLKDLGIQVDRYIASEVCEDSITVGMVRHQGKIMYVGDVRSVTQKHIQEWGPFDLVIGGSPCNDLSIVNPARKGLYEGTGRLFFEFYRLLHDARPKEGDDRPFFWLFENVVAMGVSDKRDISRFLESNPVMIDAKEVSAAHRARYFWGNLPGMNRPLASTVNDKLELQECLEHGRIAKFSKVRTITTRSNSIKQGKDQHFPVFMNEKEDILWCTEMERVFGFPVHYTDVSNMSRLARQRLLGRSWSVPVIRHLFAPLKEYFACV
T1 sequence (Q9UJW3 178-386 partner limits assumed): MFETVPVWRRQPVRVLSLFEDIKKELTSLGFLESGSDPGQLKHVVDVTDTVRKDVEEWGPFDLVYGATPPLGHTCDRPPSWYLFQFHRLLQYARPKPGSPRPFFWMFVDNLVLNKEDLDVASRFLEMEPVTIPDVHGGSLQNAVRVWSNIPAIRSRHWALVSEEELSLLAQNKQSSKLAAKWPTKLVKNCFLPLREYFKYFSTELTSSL
Method: (§1) Catalytic domains of human DNMT 3a/3L enzyme were produced by Accelagen. Human full-length DNMT1 enzyme purchased from BPS Biosciences. Poly(dldC) DNA (Sigma) was used at 0.002 mg/mL. H3 SAM (Perkin Elmer) was used at 500 nM. DNA, DNMT enzyme, and inhibitors were mixed with assay buffer (20 mM Tris pH8, 5% glycerol, 1 mM EDTA, 100 μg/mL BSA, 1 mM DTT, 50 mM NaCl) and pre-incubated without SAM for 30 min. H3 SAM was then added to initiate the methylation reaction which continues at 37° C. for 1 h. Reaction mixture was then transferred to a filter plate (Millipore Multiscreen HTS DE), then washed with 50 mM H2PO4 and 95% Ethanol. Scintillation counts were measured on the Perkin Elmer Microbeta scintillation counter.

[2] = target: T2, Human full-length DNMT1 enzyme (Homo sapiens, UniProt P26358); assay: DNMT inhibition assay (3H-SAM filter plate scintillation), DNMT1; type: biochemical; conditions: Poly(dIdC) DNA 0.002 mg/mL, H3 SAM 500 nM, 30 min pre-incubation without SAM, 37° C. 1 h
T2 construct: Human full-length DNMT1 enzyme purchased from BPS Biosciences; purchased BPS Biosciences
T2 sequence (P26358 whole entry): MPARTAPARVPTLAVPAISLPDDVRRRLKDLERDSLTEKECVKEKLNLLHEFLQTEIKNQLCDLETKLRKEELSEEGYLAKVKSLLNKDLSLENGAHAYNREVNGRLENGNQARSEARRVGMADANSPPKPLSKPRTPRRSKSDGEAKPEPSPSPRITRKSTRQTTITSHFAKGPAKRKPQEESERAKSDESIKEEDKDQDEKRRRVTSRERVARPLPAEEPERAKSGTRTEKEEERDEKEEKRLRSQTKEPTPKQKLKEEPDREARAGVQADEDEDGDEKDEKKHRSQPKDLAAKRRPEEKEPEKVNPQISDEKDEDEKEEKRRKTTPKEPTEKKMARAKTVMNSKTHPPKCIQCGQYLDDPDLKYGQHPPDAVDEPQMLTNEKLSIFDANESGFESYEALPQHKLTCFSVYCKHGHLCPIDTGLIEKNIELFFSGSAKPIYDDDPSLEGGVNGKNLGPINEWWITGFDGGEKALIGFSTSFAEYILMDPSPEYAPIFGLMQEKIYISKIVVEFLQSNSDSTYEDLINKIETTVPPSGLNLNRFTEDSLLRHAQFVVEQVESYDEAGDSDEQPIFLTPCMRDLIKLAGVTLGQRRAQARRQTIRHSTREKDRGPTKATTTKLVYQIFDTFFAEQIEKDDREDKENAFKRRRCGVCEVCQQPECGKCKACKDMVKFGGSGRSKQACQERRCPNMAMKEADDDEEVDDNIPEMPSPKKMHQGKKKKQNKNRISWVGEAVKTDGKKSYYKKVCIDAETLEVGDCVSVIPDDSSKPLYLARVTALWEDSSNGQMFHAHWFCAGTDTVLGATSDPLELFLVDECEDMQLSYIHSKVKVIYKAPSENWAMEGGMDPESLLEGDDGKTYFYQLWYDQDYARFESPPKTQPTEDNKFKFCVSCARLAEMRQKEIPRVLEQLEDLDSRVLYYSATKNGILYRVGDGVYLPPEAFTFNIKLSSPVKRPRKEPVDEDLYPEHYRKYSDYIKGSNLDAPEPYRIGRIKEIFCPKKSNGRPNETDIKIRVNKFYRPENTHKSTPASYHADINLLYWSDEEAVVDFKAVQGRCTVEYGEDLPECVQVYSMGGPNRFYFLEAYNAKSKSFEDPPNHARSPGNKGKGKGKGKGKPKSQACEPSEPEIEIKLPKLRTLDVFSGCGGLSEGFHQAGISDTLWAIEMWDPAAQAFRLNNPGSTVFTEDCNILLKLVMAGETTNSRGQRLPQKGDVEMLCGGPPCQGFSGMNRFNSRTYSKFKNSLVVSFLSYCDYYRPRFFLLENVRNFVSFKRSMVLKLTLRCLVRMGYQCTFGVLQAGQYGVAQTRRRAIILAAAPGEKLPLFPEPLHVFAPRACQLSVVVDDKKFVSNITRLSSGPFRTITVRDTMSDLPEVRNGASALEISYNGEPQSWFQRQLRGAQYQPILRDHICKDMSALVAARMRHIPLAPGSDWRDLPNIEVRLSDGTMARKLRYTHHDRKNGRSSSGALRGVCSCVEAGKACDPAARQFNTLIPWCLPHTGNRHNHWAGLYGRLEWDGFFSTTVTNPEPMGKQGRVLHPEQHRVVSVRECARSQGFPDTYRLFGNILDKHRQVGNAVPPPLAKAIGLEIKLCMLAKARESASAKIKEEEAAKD
Method: as §1

IC50 [1] [µM] | IC50 [2] [µM] | SMILES
95 | – | Nc1ncnc2c1ncn2[C@H]1O[C@@H](CSCCNc2ccnc(Cl)n2)[C@H](O)[C@@H]1O [Example 2, (2S,3S,4R,5R)-2-(6-Amino-9H-purin-9-yl)-5-(((2-((2-chloropyrimidin-4-yl)amino)ethyl)thio)methyl)tetrahydrofuran-3,4-diol]
26 | – | Nc1ncnc2c1ncn2[C@H]1O[C@@H](CSCCNc2ccncn2)[C@H](O)[C@@H]1O [Example 3, (2S,3S,4R,5R)-2-(6-Amino-9H-purin-9-yl)-5-(((2-(pyrimidin-4-ylamino)ethyl)thio)methyl)tetrahydrofuran-3,4-diol]
3 | > 300 | Nc1ncnc2c1ncn2[C@H]1O[C@@H](CSCCNc2nccc(Cl)n2)[C@H](O)[C@@H]1O [Example 1, (2S,3S,4R,5R)-2-(6-Amino-9H-purin-9-yl)-5-(((2-((4-chloropyrimidin-2-yl)amino)ethyl)thio)methyl)tetrahydrofuran-3,4-diol]
60 | 48 | Nc1ncnc2c1ncn2[C@H]1O[C@@H](CSCCNc2cc(Cl)ncn2)[C@H](O)[C@@H]1O [Example 4]
24 | 49 | C=CC(=O)NCCSC[C@@H]1O[C@H](n2cnc3c(N)ncnc32)[C@@H](O)[C@H]1O [Example 5, N-(2-((((2R,3R,4S,5S)-5-(6-Amino-9H-purin-9-yl)-3,4-di hydroxytetrahydrofuran-2-yl)methyl)thio)ethyl)acrylamide]
